Source: US7405317B2, “Phosphate-bearing prodrugs of sulfonyl hydrazines as hypoxia-selective antineoplastic agents” (priority 2004, dated 2008)

What was measured:
[1] = test system: SHP77 human lung carcinoma; assay: In vivo anti-tumor activity, SHP77 xenograft; parameters: species or system mice; settings: SHP77/Scid-Beige; dose VNP40541 110 mpk, VNP40551 85 mpk
Method: (§1) The anti-tumor effects of aforementioned prodrugs are evaluated in both solid and liquid tumor models, including the B16-F10 murine melanoma, HTB177 human lung carcinoma models, DLD1 human colon carcinoma, EMT-6 murine mammary gland carcinoma, L1210 murine leukemia, lymphoma, prostate cancer, pancreatic cancer, and head-and-neck cancer. The prodrugs are given intravenously, orally, or intraperitoneally at doses from 10 mg/kg to 2000 mg/kg; they are give at different dosing schedules such as 4 times daily, once daily, or once every several days for up to 60 doses. Testing tumor cells were implanted subcutaneously into mice, which were randomized into groups immediately after tumor cell implantation (Day 0). Mice were injected intraperitoneally (ip) with either a bolus injection of 0.1 mL PBS or drug. The treatment was carried out in a designed dosing schedule. Tumor measurement in three dimensions was determined once a week with the formula L×H×W/2, where L, H, and W represent length, height, and width, respectively. The toxicity of these drugs in mice was mild as determined by body weight loss and animal appearance.
Efficacy of KS119 was studied in murine tumor model and human xenograft models. EMT-6 murine mammary carcinoma cells (3×10^5 cells/mouse) were implanted subcutaneously into Balb/c mice. […]

[2] = test system: EMT-6 murine mammary carcinoma; format: in vivo, mice; settings: EMT6/BLAB-c Mice; dose VNP40541 85-115 mpk, VNP40551 55-85 mpk
Method: as §1, with “respectively.” for “respectively. The toxicity of these drugs in mice was mild as determined by body weight loss and animal appearance.”
(§2) Efficacy of KS119 was studied in murine tumor model and human xenograft models. EMT-6 murine mammary carcinoma cells (3×10^5 cells/mouse) were implanted subcutaneously into Balb/c mice. H460 human lung carcinoma cells, HT29 human colon carcinoma cells and SHP77 human lung carcinoma cells were established as solid xenografts in nu/nu CD-1 mice and Scid/Beige mice with 7×10^7 cells/mouse, respectively. After implantation, tumors were allowed to grow to a size of 150 to 200 mm^3 before starting treatment with KS119. KS119 was formulated in a solvent containing polyethylene glycol 300 (PEG), ethyl alcohol, citric acid, and ascorbic acid.
(§3) Efficacies of KS119W and KS119 were compared with equivalence molar doses in EMT-6 tumor and H460 tumor models. KS119W was formulated with 0.25M sodium bicarbonate solution. The treatment was started when tumors researched 150 to 200 mm^3, and lasted up to 2 weeks. KS119 at doses of 80 and 100 mg/kg and KS119W at doses of 97.6 and 121.3 mg/kg were daily administrated into mice via ip injection. […] To assess the toxicity of treatment, body weight and peripheral blood cell count were monitored after treatment.
(§4) Combined therapy of KS119W with cytoxan (CTX) was evaluated by using KS119W at dose below the MTD in combination with nontoxic dose of CTX against EMT-6 murine mammary carcinoma and H460 human lung carcinoma in CD-1 nude mice. The tumors were allowed to grow to a size of approximately 200 mm^3. In H460 tumor model, the animals received either with 4 doses 180 mg/kg and 1 dose 240 mg/kg of KS119 or CTX at dose of 100 mg/kg per dose per animal, ip injecting the drugs on 15, 22, 27, 34 and 43 days after the tumor implantation. In the combination studies, CTX was given two hours after dosing KS119W.

[3] = test system: H460 human lung carcinoma; format: in vivo, mice; settings: H460/Nude Mice; dose VNP40541 80-140 mpk, VNP40551 40-80 mpk
Method: as §1, with “respectively.” for “respectively. The toxicity of these drugs in mice was mild as determined by body weight loss and animal appearance.”
as §2, §3, §4

[4] = test system: CHO-450red (human cytochrome P-450 reductase transfected CHO cells); assay: Aerobic/hypoxic cell survival, cytochrome P-450 reductase transfected CHO cells; format: cell-based; settings: drug 10 μM
Method: (§5) EMT6 or CHO (parental or human cytochrome P-450 reductase transfected) cells, seeded in glass milk dilution bottles, were gassed for 2 hours through a rubber septum fitted with 13 gauge (inflow) and 18 gauge (outflow) needles with a mixture of 5% CO2, oxygen at various concentrations, with the balance of the mixture made up of nitrogen, to establish various hypoxic conditions. Drugs were then injected without disrupting hypoxia. After two hours, cells were collected and plated in a clonogenic assay to determine the surviving fraction, compared to untreated controls.
(§6) For in vitro analysis, KS119W must be converted to KS119OH (1) in an AP-catalyzed reaction shown above in FIG. 2, as the phosphorylated parent drug cannot cross cell membranes. KS119OH is then used in all subsequent in vitro studies shown in this section.
(§7) Like KS119, cytochrome P-450 reductase can activate KS1190H under hypoxic conditions.

[5] = test system: CHO-SCS-II (non-transfected parental line); assay: Aerobic/hypoxic cell survival, parental CHO cells; format: cell-based; settings: drug 10 μM
Method: as §5, §6, §7

In the case of `C[C@@H](OC(=O)N(N(CCCl)S(C)(=O)=O)S(C)(=O)=O)c1ccc([N+](=O)[O-])c(OP(=O)(O)O)c1` [VNP40541], the “Inhibition (%)” value [1] is reported as 83%, the “Inhibition (%)” value [2] is reported as 58-69% and the “Inhibition (%)” value [3] is reported as 52-80%. For the same compound, the “Surviving fraction at 0.1% oxygen” value ([4]; 0.1% oxygen) was 0.001368, the “Surviving fraction in air” value ([4]; air) was 0.9277 and the “Surviving fraction at 0.1% oxygen” value ([5]; 0.1% oxygen) was 0.04737. The “Surviving fraction in air” value ([5]; air) was 1.086.
